Tested on: 171881-019-R-J1-PDC complex spheroid viability
Experiment: Anticancer human tumor 171881-019-R-J1-PDC patient-derived invasive breast carcinoma cell line growth inhibition
Conditions: for IC50: curve of first compound; for viability, T/C: stronger effect = lower value
Summary of the method: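 Complex spheroids of tumor cells with HUVEC and human MSCs, exposed to iadademstat combined with other agents. Each agent tested in half-log steps from near clinical Cmax (else 10 microM top), DMSO ≤0.25%.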

[1] = second compound 0.1 µM, first compound 0.00949 µM
[2] = second compound 0.1 µM, first compound 0.03 µM
[3] = second compound 0.1 µM, first compound 0.0949 µM
[4] = second compound 0.1 µM, first compound 0.3 µM
[5] = second compound 0.1 µM, first compound 0.949 µM
[6] = second compound 0.1 µM, first compound 3 µM
[7] = second compound 0.316 µM, first compound 0.00949 µM
[8] = second compound 0.316 µM, first compound 0.03 µM
[9] = second compound 0.316 µM, first compound 0.0949 µM
[10] = second compound 0.316 µM, first compound 0.3 µM
[11] = second compound 0.316 µM, first compound 0.949 µM
[12] = second compound 0.316 µM, first compound 3 µM
[13] = second compound 1 µM, first compound 0.00949 µM
[14] = second compound 1 µM, first compound 0.03 µM
[15] = second compound 1 µM, first compound 0.0949 µM
[16] = second compound 1 µM, first compound 0.3 µM
[17] = second compound 1 µM, first compound 0.949 µM
[18] = second compound 1 µM, first compound 3 µM
[19] = second compound 3.16 µM, first compound 0.00949 µM
[20] = second compound 3.16 µM, first compound 0.03 µM
[21] = second compound 3.16 µM, first compound 0.0949 µM
[22] = second compound 3.16 µM, first compound 0.3 µM
[23] = second compound 3.16 µM, first compound 0.949 µM
[24] = second compound 3.16 µM, first compound 3 µM
[25] = second compound 10 µM, first compound 0.00949 µM
[26] = second compound 10 µM, first compound 0.03 µM
[27] = second compound 10 µM, first compound 0.0949 µM
[28] = second compound 10 µM, first compound 0.3 µM
[29] = second compound 10 µM, first compound 0.949 µM
[30] = second compound 10 µM, first compound 3 µM

## Cn1ncnc1C1c2n[nH]c(=O)c3cc(F)cc(c23)NC1c1ccc(F)cc1 (stereo not given) + NC1CCC(NC2CC2c2ccccc2)CC1
Second compound 0.1 µM
  IC50: > 100 nM
Second compound 0.316 µM
  IC50: > 100 nM
Second compound 1 µM
  IC50: > 100 nM
Second compound 3.16 µM
  IC50: > 100 nM
Second compound 10 µM
  IC50: > 100 nM
Second compound 0.1 µM, first compound 0.000316 µM
  viability, T/C: 92.3%
Second compound 0.1 µM, first compound 0.001 µM
  viability, T/C: 79.1%
Second compound 0.1 µM, first compound 0.00316 µM
  viability, T/C: 88.4%
Second compound 0.1 µM, first compound 0.01 µM
  viability, T/C: 79.3%
Second compound 0.1 µM, first compound 0.0316 µM
  viability, T/C: 81.4%
Second compound 0.1 µM, first compound 0.1 µM
  viability, T/C: 85.7%
Second compound 0.316 µM, first compound 0.000316 µM
  viability, T/C: 82.1%
Second compound 0.316 µM, first compound 0.001 µM
  viability, T/C: 76.3%
Second compound 0.316 µM, first compound 0.00316 µM
  viability, T/C: 69.3%
Second compound 0.316 µM, first compound 0.01 µM
  viability, T/C: 71.5%
Second compound 0.316 µM, first compound 0.0316 µM
  viability, T/C: 81.8%
Second compound 0.316 µM, first compound 0.1 µM
  viability, T/C: 76.7%
Second compound 1 µM, first compound 0.000316 µM
  viability, T/C: 78.9%
Second compound 1 µM, first compound 0.001 µM
  viability, T/C: 85.5%
Second compound 1 µM, first compound 0.00316 µM
  viability, T/C: 70.7%
Second compound 1 µM, first compound 0.01 µM
  viability, T/C: 71.7%
Second compound 1 µM, first compound 0.0316 µM
  viability, T/C: 73.5%
Second compound 1 µM, first compound 0.1 µM
  viability, T/C: 79.9%
Second compound 3.16 µM, first compound 0.000316 µM
  viability, T/C: 90%
Second compound 3.16 µM, first compound 0.001 µM
  viability, T/C: 78.8%
Second compound 3.16 µM, first compound 0.00316 µM
  viability, T/C: 59.2%
Second compound 3.16 µM, first compound 0.01 µM
  viability, T/C: 86.7%
Second compound 3.16 µM, first compound 0.0316 µM
  viability, T/C: 78.8%
Second compound 3.16 µM, first compound 0.1 µM
  viability, T/C: 85.7%
Second compound 10 µM, first compound 0.000316 µM
  viability, T/C: 73%
Second compound 10 µM, first compound 0.001 µM
  viability, T/C: 84.5%
Second compound 10 µM, first compound 0.00316 µM
  viability, T/C: 71%
Second compound 10 µM, first compound 0.01 µM
  viability, T/C: 76.3%
Second compound 10 µM, first compound 0.0316 µM
  viability, T/C: 72.6%
Second compound 10 µM, first compound 0.1 µM
  viability, T/C: 88.6%

## NS(=O)(=O)OCC1CC(n2ccc3c(NC4CCc5ccccc54)ncnc32)CC1O (stereo not given) + NC1CCC(NC2CC2c2ccccc2)CC1
Second compound 0.1 µM
  IC50: 41.9 nM
Second compound 0.316 µM
  IC50: 42.7 nM
Second compound 1 µM
  IC50: 31.1 nM
Second compound 3.16 µM
  IC50: 32.7 nM
Second compound 10 µM
  IC50: 39 nM
[1]
  viability, T/C: 109%
[2]
  viability, T/C: 58.5%
[3]
  viability, T/C: 29.3%
[4]
  viability, T/C: 23.5%
[5]
  viability, T/C: 27.9%
[6]
  viability, T/C: 23.8%
[7]
  viability, T/C: 110%
[8]
  viability, T/C: 58.5%
[9]
  viability, T/C: 30.5%
[10]
  viability, T/C: 27.9%
[11]
  viability, T/C: 27.3%
[12]
  viability, T/C: 21.7%
[13]
  viability, T/C: 103%
[14]
  viability, T/C: 50.7%
[15]
  viability, T/C: 23.8%
[16]
  viability, T/C: 23.3%
[17]
  viability, T/C: 27.7%
[18]
  viability, T/C: 20.5%
[19]
  viability, T/C: 109%
[20]
  viability, T/C: 51.2%
[21]
  viability, T/C: 31.7%
[22]
  viability, T/C: 22.8%
[23]
  viability, T/C: 25.1%
[24]
  viability, T/C: 19.2%
[25]
  viability, T/C: 94.6%
[26]
  viability, T/C: 54.8%
[27]
  viability, T/C: 33.1%
[28]
  viability, T/C: 26.1%
[29]
  viability, T/C: 21.1%
[30]
  viability, T/C: 16.9%

## O=C(C=Cc1cccc(S(=O)(=O)Nc2ccccc2)c1)NO + NC1CCC(NC2CC2c2ccccc2)CC1
Second compound 0.1 µM
  IC50: 441 nM
Second compound 0.316 µM
  IC50: 387 nM
Second compound 1 µM
  IC50: 371 nM
Second compound 3.16 µM
  IC50: 370 nM
Second compound 10 µM
  IC50: 363 nM
[1]
  viability, T/C: 81.7%
[2]
  viability, T/C: 86.9%
[3]
  viability, T/C: 112%
[4]
  viability, T/C: 69.3%
[5]
  viability, T/C: 10.8%
[6]
  viability, T/C: 0.16%
[7]
  viability, T/C: 92.8%
[8]
  viability, T/C: 104%
[9]
  viability, T/C: 112%
[10]
  viability, T/C: 63.5%
[11]
  viability, T/C: 5.13%
[12]
  viability, T/C: 0.17%
[13]
  viability, T/C: 101%
[14]
  viability, T/C: 108%
[15]
  viability, T/C: 100%
[16]
  viability, T/C: 59%
[17]
  viability, T/C: 10.2%
[18]
  viability, T/C: 5.62%
[19]
  viability, T/C: 93.4%
[20]
  viability, T/C: 105%
[21]
  viability, T/C: 97%
[22]
  viability, T/C: 58.9%
[23]
  viability, T/C: 9.02%
[24]
  viability, T/C: 0.15%
[25]
  viability, T/C: 84.1%
[26]
  viability, T/C: 93%
[27]
  viability, T/C: 111%
[28]
  viability, T/C: 59.1%
[29]
  viability, T/C: 7.76%
[30]
  viability, T/C: 0.33%
